The text below walks through data of ChEMBL document CHEMBL2073754, “Cotransport of reduced glutathione with bile salts by MRP4 (ABCC4) localized to the basolateral hepatocyte membrane” (Hepatology, 2003).

What all share (type): functional, cell membranes, Membrane vesicle
Holding throughout (parameters): scale not given: the % may be the effect or the level left

For series [1], the target named is T1, ATP-binding cassette sub-family C member 4 (Homo sapiens, UniProt O15439).
T1 sequence (O15439 whole entry): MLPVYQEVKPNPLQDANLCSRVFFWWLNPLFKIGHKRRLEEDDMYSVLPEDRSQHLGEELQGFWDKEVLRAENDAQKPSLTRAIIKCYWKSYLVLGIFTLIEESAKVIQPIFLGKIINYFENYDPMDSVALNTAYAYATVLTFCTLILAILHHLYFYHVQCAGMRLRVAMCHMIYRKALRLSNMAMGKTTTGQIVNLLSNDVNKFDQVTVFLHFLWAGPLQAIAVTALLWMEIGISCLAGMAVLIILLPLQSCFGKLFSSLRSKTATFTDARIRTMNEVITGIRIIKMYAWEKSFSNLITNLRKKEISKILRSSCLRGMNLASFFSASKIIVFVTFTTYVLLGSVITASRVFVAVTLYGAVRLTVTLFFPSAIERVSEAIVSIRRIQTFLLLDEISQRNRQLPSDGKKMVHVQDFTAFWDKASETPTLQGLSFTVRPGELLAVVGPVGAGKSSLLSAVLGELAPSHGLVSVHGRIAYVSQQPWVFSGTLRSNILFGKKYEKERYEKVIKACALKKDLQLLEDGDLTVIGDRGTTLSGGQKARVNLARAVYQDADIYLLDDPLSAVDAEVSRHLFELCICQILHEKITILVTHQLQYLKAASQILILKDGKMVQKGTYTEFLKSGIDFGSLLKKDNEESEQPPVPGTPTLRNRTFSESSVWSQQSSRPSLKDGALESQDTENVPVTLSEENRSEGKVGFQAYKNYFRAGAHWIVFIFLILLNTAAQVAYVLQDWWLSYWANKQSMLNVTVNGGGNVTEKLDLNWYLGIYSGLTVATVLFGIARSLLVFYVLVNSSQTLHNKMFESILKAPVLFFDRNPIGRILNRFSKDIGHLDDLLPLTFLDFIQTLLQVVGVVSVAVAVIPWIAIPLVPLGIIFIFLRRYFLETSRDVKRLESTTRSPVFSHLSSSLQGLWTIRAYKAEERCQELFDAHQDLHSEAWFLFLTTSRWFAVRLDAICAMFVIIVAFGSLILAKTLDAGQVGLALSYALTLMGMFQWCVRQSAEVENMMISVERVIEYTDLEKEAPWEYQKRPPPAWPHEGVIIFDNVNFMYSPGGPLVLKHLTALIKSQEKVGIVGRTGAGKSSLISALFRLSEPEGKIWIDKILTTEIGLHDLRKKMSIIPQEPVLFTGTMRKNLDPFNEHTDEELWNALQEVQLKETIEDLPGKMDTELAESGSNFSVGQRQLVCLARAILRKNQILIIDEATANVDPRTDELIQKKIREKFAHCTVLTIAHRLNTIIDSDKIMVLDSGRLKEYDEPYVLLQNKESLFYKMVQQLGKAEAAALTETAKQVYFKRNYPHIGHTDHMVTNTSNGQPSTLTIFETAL
Nature of the series: TP_TRANSPORTER: inhibition of Taurocholate uptake in the presence of MK-571 at a concentration of 20uM in membrane vesicles from MRP4-expressing V79 cells. The note with it: hamster, v79, 20 µM.

For series [2], the target named is T1, ATP-binding cassette sub-family C member 4. Kind of series: TP_TRANSPORTER: inhibition of Taurocholate uptake in the presence of Lithocholate at a concentration of 20uM in membrane vesicles from MRP4-expressing V79 cells. The note with it: hamster, v79, 20 µM.
Series [3] addresses T2, MRP4 (ABCC4) (Homo sapiens, UniProt O15439).
T2 sequence (O15439 whole entry): T1 sequence (O15439 whole entry)
Kind of series: TP_TRANSPORTER: inhibition of Taurocholate uptake in the presence of Glycocholate at a concentration of 20uM in membrane vesicles from MRP4-expressing V79 cells. The conditions noted are these: hamster, probe taurocholate, read-out: Activity.

The target of series [4] is T2, MRP4 (ABCC4). Nature of the series: TP_TRANSPORTER: inhibition of Taurocholate uptake in the presence of Methotrexate at a concentration of 20uM in membrane vesicles from MRP4-expressing V79 cells. The note with it: hamster, probe taurocholate, read-out: Activity.
Series [5] deals with T2, MRP4 (ABCC4). Kind of series: TP_TRANSPORTER: inhibition of Taurocholate uptake in the presence of Tauroursodeoxycholate at a concentration of 20uM in membrane vesicles from MRP4-expressing V79 cells. The note with it: hamster, probe taurocholate, read-out: Activity.
Series [6] concerns the target T2, MRP4 (ABCC4). Nature of the series: TP_TRANSPORTER: inhibition of Taurocholate uptake in the presence of Lithoglycocholate at a concentration of 20uM in membrane vesicles from MRP4-expressing V79 cells. The conditions noted are these: hamster, probe taurocholate, read-out: Activity.
Series [7] addresses T2, MRP4 (ABCC4). Kind of series: TP_TRANSPORTER: inhibition of Taurocholate uptake in the presence of Dipyridamole at a concentration of 20uM in membrane vesicles from MRP4-expressing V79 cells. The conditions noted are these: hamster, probe taurocholate, read-out: Activity.
The target in series [8] is T2, MRP4 (ABCC4). Nature of the series: TP_TRANSPORTER: inhibition of Taurocholate uptake in the presence of Folate at a concentration of 20uM in membrane vesicles from MRP4-expressing V79 cells. The note with it: hamster, probe taurocholate, read-out: Activity.
Series [9] has as its target T2, MRP4 (ABCC4). Kind of series: TP_TRANSPORTER: inhibition of Taurocholate uptake in the presence of Ursodeoxycholate at a concentration of 20uM in membrane vesicles from MRP4-expressing V79 cells. The note with it: hamster, probe taurocholate, read-out: Activity.
Series [10] concerns the target T2, MRP4 (ABCC4). Kind of series: TP_TRANSPORTER: inhibition of Taurocholate uptake in the presence of Dehydroepiandrosterone-3-sulfate at a concentration of 5uM in membrane vesicles from MRP4-expressing V79 cells. The conditions noted are these: hamster, probe taurocholate, read-out: Activity.
Series [11] has as its target T2, MRP4 (ABCC4). Nature of the series: TP_TRANSPORTER: inhibition of Taurocholate uptake by Taurochenodeoxycholate at a concentration of 20uM in membrane vesicles from MRP4-expressing V79 cells. The note with it: hamster, probe taurocholate, read-out: Activity.
In series [12] the target is T1, ATP-binding cassette sub-family C member 4. Kind of series: TP_TRANSPORTER: inhibition of Taurocholate uptake in the presence of Probenecid at a concentration of 20uM in membrane vesicles from MRP4-expressing V79 cells. The conditions noted are these: hamster, v79, 20 µM.

Structures are written as SMILES.

Consider `CN(C)C(=O)CCSC(SCCC(=O)O)c1cccc(/C=C/c2ccc3ccc(Cl)cc3n2)c1` (configuration not stated) [MK-571], for which the Activity in [1] amounted to 9%.

In the case of `C[C@H](CCC(=O)O)[C@H]1CC[C@H]2[C@@H]3CC[C@@H]4C[C@H](O)CC[C@]4(C)[C@H]3CC[C@]12C` [LITHOCHOLIC ACID], the Activity in series [2] is 68%.

As for `C[C@H](CCC(=O)NCC(=O)O)[C@H]1CC[C@H]2[C@@H]3[C@H](O)C[C@@H]4C[C@H](O)CC[C@]4(C)[C@H]3C[C@H](O)[C@]12C` [GLYCOCHOLIC ACID], the activity at 20 µM at MRP4 (ABCC4) [3] is 45%.

For `CN(Cc1cnc2nc(N)nc(N)c2n1)c1ccc(C(=O)N[C@@H](CCC(=O)O)C(=O)O)cc1` [METHOTREXATE], on MRP4 (ABCC4) [4], the activity at 20 µM was determined as 39%.

Regarding `C[C@H](CCC(=O)NCCS(=O)(=O)O)[C@H]1CC[C@H]2[C@@H]3[C@@H](O)C[C@@H]4C[C@H](O)CC[C@]4(C)[C@H]3CC[C@]12C` [TAURURSODIOL], the activity at 20 µM on MRP4 (ABCC4) [5] was 26%.

With `C[C@H](CCC(=O)NCC(=O)O)[C@H]1CC[C@H]2[C@@H]3CC[C@@H]4C[C@H](O)CC[C@]4(C)[C@H]3CC[C@]12C` [LITHOGLYCOCHOLATE], the activity at 20 µM on MRP4 (ABCC4) [6] stood at 9%.

As for `OCCN(CCO)c1nc(N2CCCCC2)c2nc(N(CCO)CCO)nc(N3CCCCC3)c2n1` [DIPYRIDAMOLE], the activity at 20 µM at MRP4 (ABCC4) [7] is 32%.

Regarding `Nc1nc2ncc(CNc3ccc(C(=O)N[C@@H](CCC(=O)O)C(=O)O)cc3)nc2c(=O)[nH]1` [FOLIC ACID], at MRP4 (ABCC4) [8], the activity at 20 µM is 63%.

`C[C@H](CCC(=O)O)[C@H]1CC[C@H]2[C@@H]3[C@@H](O)C[C@@H]4C[C@H](O)CC[C@]4(C)[C@H]3CC[C@]12C` [URSODIOL]: on MRP4 (ABCC4) [9], the activity at 20 µM was 18%.

Turning to `C[C@]12CC[C@H](OS(=O)(=O)O)CC1=CC[C@@H]1[C@@H]2CC[C@]2(C)C(=O)CC[C@@H]12` [PRASTERONE SULFURIC ACID], the activity at 5 µM at MRP4 (ABCC4) [10] came out at 34%.

For `C[C@H](CCC(=O)NCCS(=O)(=O)O)[C@H]1CC[C@H]2[C@@H]3[C@H](O)C[C@@H]4C[C@H](O)CC[C@]4(C)[C@H]3CC[C@]12C` [TAUROCHENODEOXYCHOLATE], the activity at 20 µM at MRP4 (ABCC4) [11] worked out at 11%.

Consider `CCCN(CCC)S(=O)(=O)c1ccc(C(=O)O)cc1` [PROBENECID], for which, in series [12], the Activity is listed as 52%.
